According to ChEMBL document CHEMBL6087405, “Discovery and optimization of anthraquinone derivatives containing substituted bisbenzyloxy groups as a novel scaffold damaged endoplasmic reticulum and against hepatocellular carcinoma cells” (Bioorg Med Chem, 2024):
Calls of active or inactive are those of the source. The rule behind the calls is not given here.

Assays:
Huh-7 [1] = assay: Upregulation of CRT expression level in human Huh-7 cells at 2 to 4 uM measured after 48 hrs by Western blot analysis; type: functional, cell-based; conditions: dose 2-4 µM
Huh-7 [2] = assay: Induction of ER stress in human Huh-7 cells assessed as increase in IRE1 protein level at 2 to 4 uM incubated for 48 hrs by Western blot analysis; type: functional, cell-based; conditions: dose 2-4 µM
Huh-7 [3] = assay: Upregulation of Bax protein level in human Huh-7 cells at 2 to 4 uM by Western blot analysis; type: functional, cell-based; conditions: dose 2-4 µM
Huh-7 [4] = assay: Induction of morphological change in human Huh-7 cells assessed as appearance of condensed cell nucleus at 2 to 4 uM measured after 48 hrs by HE staining based microscopic analysis; type: functional; conditions: dose 2-4 µM
Huh-7 [5] = assay: Upregulation of cleaved caspase-3 protein level in human Huh-7 cells at 2 to 4 uM by Western blot analysis; type: functional, cell-based; conditions: dose 2-4 µM
Huh-7 [6] = assay: Induction of apoptosis in human Huh-7 cells assessed as early apoptotic cells at 4 uM measured after 48 hrs by Annexin V-PE staining based flow cytometry analysis (reference value: 0.88%); type: functional
Huh-7 [7] = assay: Induction of apoptosis in human Huh-7 cells assessed as late apoptotic cells at 8 uM measured after 48 hrs by Annexin V-PE staining based flow cytometry analysis (reference value: 2.06%); type: functional
Huh-7 [8] = assay: Upregulation of Caspase 12 expression level in human Huh-7 cells at 2 to 4 uM measured after 48 hrs by Western blot analysis; type: functional, cell-based; conditions: dose 2-4 µM
A549 = assay: Antiproliferative activity against human A549 cells measured after 48 hrs by MTT assay; type: functional, cell-based; conditions: A549, 48 h
Huh-7 [9] = assay: Induction of ER stress in human Huh-7 cells assessed as increase in CHOP protein level at 2 to 4 uM incubated for 48 hrs by Western blot analysis; type: functional, cell-based; conditions: dose 2-4 µM
Huh-7 [10] = assay: Induction of ER damage in human Huh-7 cells assessed as decrease in glycoprotein content at 2 to 4 uM incubated for 48 hrs by ELISA method; type: functional, cell-based; conditions: dose 2-4 µM
Huh-7 [11] = assay: Induction of apoptosis in human Huh-7 cells assessed as viable cells at 8 uM measured after 48 hrs in presence of Z-VAD by Annexin V-PE staining based flow cytometry analysis (reference value: 93.69%); type: functional; conditions: read-out: Activity
Huh-7 [12] = assay: Induction of ER damage in human Huh-7 cells assessed as decrease in protein-disulfide bond content at 2 to 4 uM incubated for 48 hrs by absorbance based analysis; type: functional, cell-based; conditions: dose 2-4 µM
MDA-MB-231 = assay: Antiproliferative activity against human MDA-MB-231 cells measured after 48 hrs by MTT assay; type: functional, cell-based; conditions: MDA-MB-231, 48 h
Huh-7 [13] = assay: Induction of ER stress in human Huh-7 cells assessed as increase in PERK protein level at 4 uM incubated for 48 hrs in presence of 4pba by Western blot analysis; type: functional, cell-based
Huh-7 [14] = assay: Upregulation of Cytochrome C level in human Huh-7 cells at 2 to 4 uM by Western blot analysis; type: functional, cell-based; conditions: dose 2-4 µM
Huh-7 [15] = assay: Induction of apoptosis in human Huh-7 cells assessed as necrotic cells at 4 uM measured after 48 hrs by Annexin V-PE staining based flow cytometry analysis (reference value: 3.37%); type: functional
Huh-7 [16] = assay: Induction of ER stress in human Huh-7 cells assessed as increase in GRP78 protein level at 4 uM incubated for 48 hrs in presence of 4pba by Western blot analysis; type: functional, cell-based
Huh-7 [17] = assay: Antiproliferative activity against human Huh-7 cells measured after 48 hrs by MTT assay; type: functional, cell-based; conditions: Huh-7, 48 h
Huh-7 [18] = assay: Induction of mitochondrial ROS release in human Huh-7 cells at 2 uM measured after 24 hrs by fluorescent microscopic analysis; type: functional, cell-based
Huh-7 [19] = assay: Induction of apoptosis in human Huh-7 cells assessed as viable cells at 2 uM measured after 48 hrs by Annexin V-PE staining based flow cytometry analysis (reference value: 93.69%); type: functional; conditions: read-out: Activity
Huh-7 [20] = assay: Induction of ER stress in human Huh-7 cells assessed as increase in calcium ion content by measuring fluorescence intensity at 4 uM incubated for 24 hrs by fluorescence microscopy based analysis; type: functional, cell-based
Huh-7 [21] = assay: Induction of ER stress in human Huh-7 cells assessed as increase in PERK protein level at 2 to 4 uM incubated for 48 hrs by Western blot analysis; type: functional, cell-based; conditions: dose 2-4 µM
Huh-7 [22] = assay: Induction of apoptosis in human Huh-7 cells assessed as early apoptotic cells at 8 uM measured after 48 hrs in presence of Z-VAD by Annexin V-PE staining based flow cytometry analysis (reference value: 0.88%); type: functional
Huh-7 [23] = assay: Induction of ER stress in human Huh-7 cells assessed as increase in IRE1 protein level at 4 uM incubated for 48 hrs in presence of 4pba by Western blot analysis; type: functional, cell-based
Huh-7 [24] = assay: Induction of apoptosis in human Huh-7 cells assessed as late apoptotic cells at 2 uM measured after 48 hrs by Annexin V-PE staining based flow cytometry analysis (reference value: 2.06%); type: functional
Huh-7 [25] = assay: Induction of ER stress in human Huh-7 cells assessed as increase in ATF6 protein level at 4 uM incubated for 48 hrs in presence of 4pba by Western blot analysis; type: functional, cell-based
Mitochondrial membrane = assay: Disruption of mitochondrial membrane potential in human Huh-7 cells assessed as appearance of punctate shaped mitochondria at 2 uM measured after 24 hrs by laser scanning confocal microscopic analysis; type: cell membranes
Huh-7 [26] = assay: Induction of morphological change in human Huh-7 cells assessed as decrease in number of cells at 2 to 4 uM measured after 48 hrs by HE staining based microscopic analysis; type: functional, cell-based; conditions: dose 2-4 µM
Huh-7 [27] = assay: Induction of morphological change in human Huh-7 cells assessed as membrane wrinkling at 2 to 4 uM measured after 48 hrs by HE staining based microscopic analysis; type: functional, cell-based; conditions: dose 2-4 µM
Huh-7 [28] = assay: Induction of apoptosis in human Huh-7 cells assessed as necrotic cells at 8 uM measured after 48 hrs by Annexin V-PE staining based flow cytometry analysis (reference value: 3.37%); type: functional
Huh-7 [29] = assay: Induction of apoptosis in human Huh-7 cells assessed as viable cells at 8 uM measured after 48 hrs by Annexin V-PE staining based flow cytometry analysis (reference value: 93.69%); type: functional; conditions: read-out: Activity
Huh-7 [30] = assay: Induction of apoptosis in human Huh-7 cells assessed as necrotic cells at 2 uM measured after 48 hrs by Annexin V-PE staining based flow cytometry analysis (reference value: 3.37%); type: functional
Huh-7 [31] = assay: Induction of apoptosis in human Huh-7 cells assessed as late apoptotic cells at 8 uM measured after 48 hrs in presence of Z-VAD by Annexin V-PE staining based flow cytometry analysis (reference value: 2.06%); type: functional
Huh-7 [32] = assay: Induction of ER stress in human Huh-7 cells assessed as increase in calcium ion content by measuring fluorescence intensity at 4 uM incubated for 24 hrs in presence of […] by fluorescence microscopy based analysis; type: functional, cell-based
Huh-7 [33] = assay: Induction of morphological change in human Huh-7 cells assessed as nuclear edge aggregation at 2 to 4 uM measured after 48 hrs by HE staining based microscopic analysis; type: functional, cell-based; conditions: dose 2-4 µM
Huh-7 [34] = assay: Upregulation of BAK protein level in human Huh-7 cells at 2 to 4 uM by Western blot analysis; type: functional, cell-based; conditions: dose 2-4 µM
Huh-7 [35] = assay: Induction of apoptosis in human Huh-7 cells assessed as early apoptotic cells at 2 uM measured after 48 hrs by Annexin V-PE staining based flow cytometry analysis (reference value: 0.88%); type: functional

In the case of `COc1ccc(COc2cccc3c2C(=O)c2c(OCc4ccc(OC)cc4)cc(C(=O)NCCNCCO)cc2C3=O)cc1`, the Activity (Huh-7 [1]) is reported as “Active”, the Activity (Huh-7 [2]) is reported as “Active” and the Activity (Huh-7 [3]) is reported as “Active”. For the same compound, the Activity (Huh-7 [4]) was “Active”, the Activity (Huh-7 [5]) was “Active” and the Activity (Huh-7 [6]) was 43.64%. The Activity (Huh-7 [7]) was 6.32%, the Activity (Huh-7 [8]) was “Active” and the IC50 (A549) was 2.58 µM. For the same compound, the Activity (Huh-7 [9]) was “Active”, the Activity (Huh-7 [10]) was “Active” and the viability at 8 µM (Huh-7 [11]) was 68.5%. The Activity (Huh-7 [12]) was “Active”, the IC50 (MDA-MB-231) was 0.6 µM and the Activity (Huh-7 [13]) was “inactive”. The Activity (Huh-7 [14]) was “Active”, the Activity (Huh-7 [15]) was 8.55% and the Activity (Huh-7 [16]) was “inactive”. For the same compound, the IC50 (Huh-7 [17]) was 1.75 µM, the Activity (Huh-7 [18]) was “Active” and the viability at 2 µM (Huh-7 [19]) was 24.1%. The Activity (Huh-7 [20]) was “Active”, the Activity (Huh-7 [21]) was “Active” and the Activity (Huh-7 [22]) was 16.45%. For the same compound, the Activity (Huh-7 [23]) was “inactive”, the Activity (Huh-7 [24]) was 4.4% and the Activity (Huh-7 [25]) was “inactive”. For the same compound, the Activity (Mitochondrial membrane) was “Active”, the Activity (Huh-7 [26]) was “Active” and the Activity (Huh-7 [27]) was “Active”. It also gave an Activity (Huh-7 [28]) of 1.2%, a viability at 8 µM (Huh-7 [29]) of 23.7% and an Activity (Huh-7 [30]) of 6.06%. The Activity (Huh-7 [31]) was 4.41%, the Activity (Huh-7 [32]) was “inactive” and the Activity (Huh-7 [33]) was “Active”. The Activity (Huh-7 [34]) was “Active” and the Activity (Huh-7 [35]) was 65.4%.
